What was measured:
[1] = system: liver injury induced by D-galactosamine; assay: Experimental Example 2b: inhibition of liver injury in rats (group I-b), method given as that of Experimental Example 1b; type: in vivo, male Fischer (F344) rats; details: Rattus norvegicus, 48 h; Table 2b; compound 100 mg/kg oral in 0.5% methylcellulose; read-out: Inhibition ratio (%) GPT
Method: The test was conducted in the same manner as shown in Experimental Example 1b except that the test compound was orally administered to the rats in a dose of 100 mg/kg in 0.5% methylcellulose solution.

[2] = system: liver injury induced by D-galactosamine; assay: Experimental Example 1b: effect on liver injury induced by D-galactosamine in rats (group I-b); type: in vivo, male Fischer (F344) rats; details: Rattus norvegicus, po, 48 h, Table 1b, D-galactosamine 400 mg/kg, compound 100 mg/kg in 0.5% methylcellulose
[3] = Study of plants used as folk medicines for liver trouble remedies; details: in words
[4] = read-out: Inhibition ratio (%) GPT
[5] = read-out: Inhibition ratio (%) HPT

Row | Compound | inhibition in vivo at 100 mg/kg [1] | inhibition in vivo at 100 mg/kg [2, 4] | inhibition in vivo at 100 mg/kg [2, 5] | effect as liver trouble remedy [3]
1 | C[S+]([O-])CCc1ccc2c(c1)OCO2 (centres unmarked) [Compound 26] | 97% | 100% | 100% | 
2 | CCOC(=O)CSCCc1ccc2c(c1)OCO2 [Compound 25] | 21% | 34% | 61% | 
3 | O=C(O)CCSCCc1ccc2c(c1)OCO2 [Compound 9] | 98% | 100% | 99% | 
4 | CS(=O)(=O)CCc1ccc2c(c1)OCO2 [Compound 28] | 97% | 95% | 98% | 
5 | OCCSSSCc1ccccc1 [2-[(phenylmethyl)trithio]ethanol] |  |  |  | effective as liver trouble remedies
6 | NC(=O)CSCCc1ccc2c(c1)OCO2 [Compound 16] | 61% | 86% | 94% | 
7 | OCCCSCCc1ccc2c(c1)OCO2 [Compound 4] | 93% | 98% | 98% | 
8 | O=C(O)CCCSCCc1ccc2c(c1)OCO2 [Compound 10] | 43% | 89% | 99% | 
9 | OC1OCC(Cc2ccc3c(c2)OCO3)C1Cc1ccc2c(c1)OCO2 (centres unmarked) [cubebin] |  |  |  | effective as liver trouble remedies

— US5292901A, “Benzodioxole derivatives” (Eisai Co., Ltd., priority 1987, dated 1994)
